Assay results: patent US8092785B2, “Process for milling poorly soluble drugs in presence of liquid propellants” (Glaxo Group Limited, priority 2004, dated 2012)

Key:
[1] = Physical form of milled, co-milled or spray dried product by XRPD; type: physicochemical
Method: Drug substance prepared according to the present invention maybe characterised by a series of physical analytical techniques well known to those skilled in the art for analysing physical form, for instance XPRD, polarised light microscopy (PLM), thermal analysis, FT-IR and laser diffraction particle sizing.
500 mg of drug or drug:polymer blend (PVP K30, PVP/VA 64 (BASF) and PVP/VA 37 (BASF)) (1:2 w/w) was ball milled in a mixer mill (MM2 Mixer mill, Glen Creston Ltd). The sample was milled at 17.5 1/sec in a 25 ml chamber for 120 minutes at 2% w/v with 2×12 mm diameter and 6×7 mm diameter stainless steel ball bearings.
500 mg of drug or drug:polymer blend (PVP K30) (1:2 w/w) was placed in a 25 ml milling chamber (2% w/v). Grinding media of 2×5 mm, 2×7 mm, 2×9 mm and 2×12 mm ball bearings were added. 10 g of 134a (Du Pont) was then added into the milling chamber via a valve. The sample was then milled for 2×20 minute periods at a frequency of 25 1/sec using a Retsch MM200 Mixer mill.
XPRD patterns of resultant products are shown as FIG. 1.1 to 1.4.
500 mg of drug and 1 g of polymer (1:2 w/w) was placed in a 25 ml measuring chamber. Grinding media of 2 mm Yttrium-Zirconium beads (equivalent volume 5 ml) were added. 12 ml of propellant 134a was then added into the milling chamber via a valve. The sample was then milled for 30 minutes at a frequency of 25 1/sec using a Retsch MM200 Mixer mill.
Drug (2 g) and polymer (3 g) were dissolved in approximately 200 ml of dimethyl formamide and spray dried at approximately 2 ml/min using a lab scale spray drier (Buchi B191, outlet temperature about 95° C.). The spray dried powders were then further dried at 65° C. under vacuum for 48 hrs. The dispersions were amorphous by XRPD.
Thus, the co-milling process has not compromised the physical form of compound A.

[2] = Particle size of milled product (SEM analysis / particle sizing); type: physicochemical
Method: Drug substance prepared according to the present invention maybe characterised by a series of physical analytical techniques well known to those skilled in the art for analysing physical form, for instance XPRD, polarised light microscopy (PLM), thermal analysis, FT-IR and laser diffraction particle sizing. 500 mg of drug or drug:polymer blend (PVP K30, PVP/VA 64 (BASF) and PVP/VA 37 (BASF)) (1:2 w/w) was ball milled in a mixer mill (MM2 Mixer mill, Glen Creston Ltd). The sample was milled at 17.5 1/sec in a 25 ml chamber for 120 minutes at 2% w/v with 2×12 mm diameter and 6×7 mm diameter stainless steel ball bearings. 500 mg of drug or drug:polymer blend (PVP K30) (1:2 w/w) was placed in a 25 ml milling chamber (2% w/v). Grinding media of 2×5 mm, 2×7 mm, 2×9 mm and 2×12 mm ball bearings were added. 10 g of 134a (Du Pont) was then added into the milling chamber via a valve. The sample was then milled for 2×20 minute periods at a frequency of 25 1/sec using a Retsch MM200 Mixer mill.

[3] = parameters: key: Those in class II have low solubility and high permeability; those in class IV have low solubility and low permeability; settings: classified according to solubility and permeability (Amidon et al); cited from earlier work
[4] = Dissolution testing of ball milled and 134a ball milled products (USP II apparatus, sink conditions); type: physicochemical; settings: neat drug ball milled in 134a, 37.5° C., 50 RPM
Method: The dissolution profiles of study compounds prepared by ball milling and 134a ball milling were measured according to the following method:
Dissolution testing was carried out under sink conditions using a VanKel USP II dissolution apparatus (fluid pump Model 17-2300, water bath VK750D, water bath stirrer VK7010). Dissolution testing was carried out at 37.5° C.+/−0.5° C. (Digitron Type K thermocouple thermometer). Vessels were stirred at 50 RPM. Samples underwent online UV analysis (Hewlett Packard 8453) at time points 0, 2, 5, 10, 15, 20, 30, 45 and 60 minutes. Samples were filtered with a 10 μm filters (Anachem). The pH 6.8 0.1M phosphate buffer^1 was degassed prior to commencement of the dissolution run (Copley Dissofill, model DSF2). Standard curves were prepared by dissolving drug in acetonitrile:water (1:1) for carbamazepine and glibenclamide or acetonitrile:pH 6.8 buffer (1:1) for dipyridamole and indomethacin. Drug concentration, UV cell path length, dissolution media and wavelength of detection were all compound specific. All analysis was carried out in triplicate. ^1 pH 6.8 buffer: 20 l prepared by addition of 10 l of Na2HPO4.2H2O 17.8 g/l to 10 l of NaH2PO4.H2O 13.8 g/l. pH was confirmed using a pH meter.

[5] = ball milling with propellant 134a, 2×20 minute
[6] = conventional ball milling, 120 minutes, no propellant
[7] = ball milling with 134a, compared to conventionally milled product

In the case of NC(=O)N1c2ccccc2C=Cc2ccccc21 [carbamazepine, Carbamazepine], the “physical form of product” value [1, 5] is reported as “complete conversion to a crystalline form, form III”, the “physical form of product” value [1, 6] is reported as “conversion to a crystalline form, form III” and the particle size [2, 7] is reported as “significant decrease in particle size”. For the same compound, the particle size ([2]; conventional ball milling) was “no significant decrease in particle size” and the “Biopharmaceutics Classification system class” value [3] was “II”.

For OCCN(CCO)c1nc(N2CCCCC2)c2nc(N(CCO)CCO)nc(N3CCCCC3)c2n1 [dipyridamole], the “physical form of product” value [1, 5] was “dipyridamole form II”, the “physical form of product” value [1, 6] was “predominantly amorphous product” and the dissolution rate [4] was “improved in dissolution rate”. The “Biopharmaceutics Classification system class” value [3] was “II”.

In the case of COc1ccc(Cl)cc1C(=O)NCCc1ccc(S(=O)(=O)NC(=O)NC2CCCCC2)cc1 [glibenclamide], the “physical form of product” value [1, 5] is reported as “remained in the same crystalline form as the starting material”, the “physical form of product” value [1, 6] is reported as “amorphous product” and the particle size [2, 7] is reported as “significant decrease in particle size”. For the same compound, the “Biopharmaceutics Classification system class” value [3] was “II”.

For COc1ccc2c(c1)c(CC(=O)O)c(C)n2C(=O)c1ccc(Cl)cc1 [indomethacin], the “physical form of product” value [1, 5] was “γ form”, the “physical form of product” value [1, 6] was “predominantly amorphous product” and the particle size [2, 7] was “significant decrease in particle size”. The “Biopharmaceutics Classification system class” value [3] was “II”.
